The subject of one assay is HaCaT. The assay can be described thus: Cytotoxicity against human HaCaT cells assessed as reduction in cell viability after 24 hrs by MTT assay. It counts as cell-based.
Another assay relates to DU-145. In words: Cytotoxicity against human DU145 cells assessed as reduction in cell viability after 24 hrs by MTT assay. It counts as cell-based. The settings on record: DU-145, 24 h. (Tetrazolium assays rely on reduction of a dye to a coloured formazan, in cell work by metabolically active cells.)
The test system of the next assay is MCF7. The assay can be described thus: Cytotoxicity against human MCF7 cells assessed as reduction in cell viability after 24 hrs by MTT assay. It counts as cell-based. The settings on record: MCF7, 24 h.
The target of assay [1] is T1, Tyrosine-protein phosphatase non-receptor type 1 (Homo sapiens, UniProt P18031).
T1 sequence (P18031 whole entry): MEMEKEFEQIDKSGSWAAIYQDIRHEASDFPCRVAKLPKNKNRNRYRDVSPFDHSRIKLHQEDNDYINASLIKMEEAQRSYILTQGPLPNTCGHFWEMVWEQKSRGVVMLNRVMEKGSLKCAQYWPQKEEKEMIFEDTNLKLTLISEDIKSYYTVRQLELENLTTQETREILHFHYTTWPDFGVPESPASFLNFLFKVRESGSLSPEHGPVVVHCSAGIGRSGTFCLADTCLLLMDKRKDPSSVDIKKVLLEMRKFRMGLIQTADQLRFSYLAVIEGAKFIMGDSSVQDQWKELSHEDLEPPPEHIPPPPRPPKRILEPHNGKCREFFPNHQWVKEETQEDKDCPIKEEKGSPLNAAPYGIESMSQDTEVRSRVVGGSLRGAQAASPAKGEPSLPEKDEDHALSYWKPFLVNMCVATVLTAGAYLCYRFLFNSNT
In words: Inhibition of human recombinant PTP1B catalytic domain expressed in Escherichia coli strain BL21(DE3) using […] as substrate.

The target in assay [2] is Dual specificity tyrosine-phosphorylation-regulated kinase 1A (Homo sapiens) (UniProt Q13627). The assay can be described thus: Inhibition of GST-fused human recombinant DYRK1A expressed in Escherichia coli using woodtide as substrate after 30 mins in presence of [gamma-33P]ATP by liquid scintillation counting.

What is called IC50 is the concentration that inhibits the measured activity by half.

Activity calls are given as the source filed them. No cut-off for these calls is given here.

As for `CCCCCCCCCCCCCC[C@@H](OP(=O)(O)O)[C@@H](O)CC[C@@H](O)[C@@H](O)CC[C@@H](O)CCCCCCC(=O)NCC(=O)O`, the IC50 with HaCaT is over 10 µM; in the assay on DU-145, over 10 µM; in the assay with MCF7 it was over 10 µM; in assay [1], 11 µM. The inhibition result in assay [2] is “inactive”.

With `O=C(O)CNC(=O)CCCCCC[C@H](O)CCCO`, the IC50 in the assay with HaCaT is over 10 µM; in the assay on DU-145, over 10 µM; in the assay with MCF7 it was over 10 µM; in assay [1] it was 28 µM. In assay [2], the inhibition result is “inactive”.

As for `CCCCCCCCCCCCCC[C@@H](OP(=O)(O)O)[C@@H](O)CCCO`, the IC50 is over 10 µM in the assay on HaCaT, over 10 µM with DU-145, over 10 µM in the assay with MCF7 and 24 µM in assay [1]. In addition, in assay [2], the inhibition entry was “inactive”.

These data come from ChEMBL document CHEMBL4431308, “Structure and Configuration of Phosphoeleganin, a Protein Tyrosine Phosphatase 1B Inhibitor from the Mediterranean Ascidian Sidnyum elegans” (J Nat Prod, 2016).
